Data as given in patent US20100234381A1, “BIOMARKERS AND METHODS FOR DETERMINING SENSITIVITY TO VASCULAR ENDOTHELIAL GROWTH FACTOR RECEPTOR-2 MODULATORS” (Bristol-Myers Squibb Company, priority 2007, published 2010).
“Also recorded” adds a separate entry of the source.

Assays:
[1] = system: A2780 ovarian cancer cells; assay: FGF2-induced proliferation of A2780 ovarian cancer cells (modified MTS assay); assay type: cell-based
Method: Cell proliferation was determined by a modified MTS assay with […] 96® Aqueous One Solution Reagent (Promega, Madison, Wis.). A2780 ovarian cancer cells, MIAPAC-2 pancreatic cancer cells, or GEO colon cancer cells were seeded on 96-well flat-bottomed tissue culture plates (Becton Dickinson, San Jose, Calif.) at a concentration of 3×10^3 cells/well in RPMI 1640 with 1% fetal bovine serum at 37° C. in 5% carbon dioxide/95% air in the presence of 100 units/ml penicillin, 100 μg/ml streptomycin and allowed to adhere to the plate overnight. Then the cells were incubated in the presence of each concentration of 0 (control), 0.3, 0.6, 1.25, 2.5, 5, 10 ng/ml of FGF2 or VEGF for another 72 hours at 37° C. in a humidified atmosphere of 5% CO2 in air. After treatment, 20 μl of […] 96® Aqueous One Solution Reagent was dropped into each well of plates. After 180 minutes incubation, the optical densities (OD) of these samples were directly measured using SPECTRAMAX® plus (Molecular Device, California) and reference wavelength of 490 nm. The OD of control samples was regarded as 100. Each condition was performed with 4 wells and experiment was repeated twice.

GEO colon cancer cells = assay: VEGF-induced proliferation of GEO colon cancer cells (modified MTS assay); assay type: cell-based; settings: VEGF 2.5 ng/ml; 72 hours
Method: Cell Culture-GEO colon cancer cell line was routinely maintained in RPMI 1640 (Cellgro, Virginia) with 1% fetal bovine serum (Cellgro, Virginia) at 37° C. in 5% carbon dioxide/95% air in the presence of 100 units/ml penicillin, 100 μg/ml streptomycin (Cellgro, Virginia). Cell proliferation was determined by a modified MTS assay with […] 96® Aqueous One Solution Reagent (Promega, Madison, Wis.). […] After 180 minutes incubation, the optical densities (OD) of these samples were directly measured using SPECTRAMAX® plus (Molecular Device, California) and reference wavelength of 490 nm. […] Cell proliferation was determined by a modified MTS assay with […] […] After 180 minutes incubation, the optical densities (OD) of these samples were directly measured using SPECTRAMAX® plus (Molecular Device, California) and reference wavelength of 490 nm. […] […]

VEGF gene expression = assay: VEGF gene expression, AFFYMETRIX human arrays

Which results are given for “[(1R),2S]-2-Aminopropionic acid 2-[4-(4-fluoro-2-methyl-1H-indol-5-yloxy)-5-methylpyrrolo[2,1-f][1,2,4]triazin-6-yloxy]-1-methylethyl ester [brivanib]”?
effect on FGF2-induced cellular proliferation ([1]; A2780 ovarian cancer cells): potently inhibited; also recorded: inhibits ovarian cancer and pancreatic cancer cell line growth directly; inhibition of FGF2-induced cell growth ([1]; ovarian cancer cell line A2870): > 50%; IC50 ([1]; ovarian cancer cell line A2870, read-out: IC50, FGF2-induced cell growth): < 1000 nM; inhibition of VEGF-induced cellular proliferation in GEO cells (GEO colon cancer cells): did not potently inhibit; modulation of VEGF gene expression levels (VEGF gene expression): modulated VEGF gene expression levels
